Data published in the supplement of paper PMC11208160.

Assay: recombinant UMI read abundance after kanamycin selection (control-corrected) (log10(CPM+1)); higher = more efficient recombination; extreme values may be limits of the assay; sequences stand for … in AGTGCAGAGAAAATCGGCCAGTTTTCTCTGCCTGCAGTCCGCATGCCGTGGGACCCCTTGGGTTCTAACCTGTTGCCTAGATTTATGCAGCGGACTGCCTTTCTCCCAAAGTGATAAACCGG…AGGTTGGTTTCACT; site = the 11-nt donor
How it was run: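 The measure is log10(CPM+1) for recombinant UMIs. These were PCR-amplified across the donor–target junction and sequenced after Escherichia coli carrying a donor and donor-binding-loop pair library and a target plasmid with T7-inducible IS621 bridge recombinase was plated on IPTG (0.07 mM) plus kanamycin or unselected. CPM were averaged over two replicates and scaled by control-derived factors.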
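Also: IS621 bridge recombinase in Escherichia coli cells against a fixed T5 target plasmid.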

Sequence	recombinant UMI read abundance (log10)
GTTCGAACATGGACCGGTTTTCCCGGTAATCCGTATTTGGT (site GTTCGAACTAC)	0.225
GTTCGAGCATGGACCGGTTTTCCCGGTAATCCGTATTTGCG (site GTTCGAGCTAG)	0
GTTCGAGCATGGACCGGTTTTCCCGGTAATCCGTATTTGCG (site GTTCGAGCTCG)	1.39
GTTCGAGCATGGACCGGTTTTCCCGGTAATCCGTATTTGCG (site GTTCGAGCTGG)	0.838
GTTCGAGCATGGACCGGTTTTCCCGGTAATCCGTATTTGCG (site GTTCGAGCTTG)	1.23
GTTCGAGCATGGACCGGTTTTCCCGGTAATCCGTATTTGTA (site GTTCGAGCTTA)	1.9
GTTCGAGCATGGACCGGTTTTCCCGGTAATCCGTATTTGTA (site GTTCGAGCTTC)	0.014
GTTCGAGCATGGACCGGTTTTCCCGGTAATCCGTATTTGTA (site GTTCGAGCTTG)	0.543
GTTCGAGCATGGACCGGTTTTCCCGGTAATCCGTATTTGTA (site GTTCGAGCTTT)	0.569
GTTCGGACATGGACCGGTTTTCCCGGTAATCCGTATTTGTG (site GTTCGGACTCA)	0.706
GTTCTACCATGGACCGGTTTTCCCGGTAATCCGTATTTGCC (site GTTCTACCTGG)	0
GTTCTAGCATGGACCGGTTTTCCCGGTAATCCGTATTTGCA (site GTTCAAGCTTG)	0
GTTCTAGCATGGACCGGTTTTCCCGGTAATCCGTATTTGCA (site GTTCCAGCTTG)	0.0113
GTTCTAGCATGGACCGGTTTTCCCGGTAATCCGTATTTGCA (site GTTCGAGCTTG)	0
GTTCTAGCATGGACCGGTTTTCCCGGTAATCCGTATTTGCA (site GTTCTAGCTTG)	0.902
GTTCTCTCATGGACCGGTTTTCCCGGTAATCCGTATTTGTA (site ATTCTCTCTTA)	0.848
GTTCTCTCATGGACCGGTTTTCCCGGTAATCCGTATTTGTA (site CTTCTCTCTTA)	0.989
GTTCTCTCATGGACCGGTTTTCCCGGTAATCCGTATTTGTA (site GTTCTCTCTTA)	1.83
GTTCTCTCATGGACCGGTTTTCCCGGTAATCCGTATTTGTA (site TTTCTCTCTTA)	0.822
GTTGAAGCATGGACCGGTTTTCCCGGTAATCCGTATTTGAG (site GTTGAAGCTCT)	1.61
GTTGAGTCATGGACCGGTTTTCCCGGTAATCCGTATTTGAC (site GTTGAGTCTGT)	2.71
GTTGGCGCATGGACCGGTTTTCCCGGTAATCCGTATTTGTG (site GTTGGCGCTCA)	0.74
GTTGGGCCATGGACCGGTTTTCCCGGTAATCCGTATTTGAT (site GTTGGGCCTAT)	0.00591

Sequence	recombinant UMI read abundance (log10)
GTTGTTCCATGGACCGGTTTTCCCGGTAATCCGTATTTGGT (site ATTGTTCCTAC)	0.0121
GTTGTTCCATGGACCGGTTTTCCCGGTAATCCGTATTTGGT (site CTTGTTCCTAC)	0.00343
GTTGTTCCATGGACCGGTTTTCCCGGTAATCCGTATTTGGT (site GATGTTCCTAC)	0.0185
GTTGTTCCATGGACCGGTTTTCCCGGTAATCCGTATTTGGT (site GCTGTTCCTAC)	0.00506
GTTGTTCCATGGACCGGTTTTCCCGGTAATCCGTATTTGGT (site GGTGTTCCTAC)	0.0704
GTTGTTCCATGGACCGGTTTTCCCGGTAATCCGTATTTGGT (site GTAGTTCCTAC)	0.00238
GTTGTTCCATGGACCGGTTTTCCCGGTAATCCGTATTTGGT (site GTCGTTCCTAC)	0.005
GTTGTTCCATGGACCGGTTTTCCCGGTAATCCGTATTTGGT (site GTGGTTCCTAC)	0.508
GTTGTTCCATGGACCGGTTTTCCCGGTAATCCGTATTTGGT (site GTTATTCCTAC)	0.00427
GTTGTTCCATGGACCGGTTTTCCCGGTAATCCGTATTTGGT (site GTTCTTCCTAC)	0.0166
GTTGTTCCATGGACCGGTTTTCCCGGTAATCCGTATTTGGT (site GTTGATCCTAC)	0.00419
GTTGTTCCATGGACCGGTTTTCCCGGTAATCCGTATTTGGT (site GTTGCTCCTAC)	0.00968
GTTGTTCCATGGACCGGTTTTCCCGGTAATCCGTATTTGGT (site GTTGGTCCTAC)	0.00325
GTTGTTCCATGGACCGGTTTTCCCGGTAATCCGTATTTGGT (site GTTGTACCTAC)	0.00624
GTTGTTCCATGGACCGGTTTTCCCGGTAATCCGTATTTGGT (site GTTGTCCCTAC)	0.00355
GTTGTTCCATGGACCGGTTTTCCCGGTAATCCGTATTTGGT (site GTTGTGCCTAC)	0.03
GTTGTTCCATGGACCGGTTTTCCCGGTAATCCGTATTTGGT (site GTTGTTACTAC)	0.00857
GTTGTTCCATGGACCGGTTTTCCCGGTAATCCGTATTTGGT (site GTTGTTCCTAA)	0.00913
GTTGTTCCATGGACCGGTTTTCCCGGTAATCCGTATTTGGT (site GTTGTTCCTAC)	0.00461
GTTGTTCCATGGACCGGTTTTCCCGGTAATCCGTATTTGGT (site GTTGTTCCTAG)	0
GTTGTTCCATGGACCGGTTTTCCCGGTAATCCGTATTTGGT (site GTTGTTCCTAT)	0.00563
GTTGTTCCATGGACCGGTTTTCCCGGTAATCCGTATTTGGT (site GTTGTTCCTCC)	0.0221
GTTGTTCCATGGACCGGTTTTCCCGGTAATCCGTATTTGGT (site GTTGTTCCTGC)	0.388

Sequence	recombinant UMI read abundance (log10)
GTTGTTCCATGGACCGGTTTTCCCGGTAATCCGTATTTGGT (site GTTGTTCCTTC)	0.00361
GTTGTTCCATGGACCGGTTTTCCCGGTAATCCGTATTTGGT (site GTTGTTGCTAC)	0.0845
GTTGTTCCATGGACCGGTTTTCCCGGTAATCCGTATTTGGT (site GTTGTTTCTAC)	0
GTTGTTCCATGGACCGGTTTTCCCGGTAATCCGTATTTGGT (site GTTTTTCCTAC)	0
GTTGTTCCATGGACCGGTTTTCCCGGTAATCCGTATTTGGT (site TTTGTTCCTAC)	0.0162
GTTGTTCCATGGACCGGTTTTCCCGGTAATCCGTATTTGTT (site GTTGTTCCTAA)	0.42
GTTGTTCCATGGACCGGTTTTCCCGGTAATCCGTATTTGTT (site GTTGTTCCTAC)	0
GTTGTTCCATGGACCGGTTTTCCCGGTAATCCGTATTTGTT (site GTTGTTCCTAG)	0
GTTGTTCCATGGACCGGTTTTCCCGGTAATCCGTATTTGTT (site GTTGTTCCTAT)	0
GTTTCAACATGGACCGGTTTTCCCGGTAATCCGTATTTGAC (site GTTTCAACTGT)	0.631
GTTTCAGCATGGACCGGTTTTCCCGGTAATCCGTATTTGTG (site GTTTCAGCTCA)	0.537
GTTTCTGCATGGACCGGTTTTCCCGGTAATCCGTATTTGAG (site GTTTCTGCTCT)	0.45
TAAAGGCCATGGACCGGTTTTCCCGGTAATCCGTATTTGTA (site TAAAGACCTTA)	0.00739
TAAAGGCCATGGACCGGTTTTCCCGGTAATCCGTATTTGTA (site TAAAGCCCTTA)	0.00872
TAAAGGCCATGGACCGGTTTTCCCGGTAATCCGTATTTGTA (site TAAAGGCCTTA)	0.544
TAAAGGCCATGGACCGGTTTTCCCGGTAATCCGTATTTGTA (site TAAAGTCCTTA)	0.12
TAACAACCATGGACCGGTTTTCCCGGTAATCCGTATTTGTT (site TAACAACCTAA)	0.06
TAACGAACATGGACCGGTTTTCCCGGTAATCCGTATTTGCG (site TAACGAACTCG)	1.63
TAACGAGCATGGACCGGTTTTCCCGGTAATCCGTATTTGGG (site TAAAGAGCTCC)	0.00891
TAACGAGCATGGACCGGTTTTCCCGGTAATCCGTATTTGGG (site TAACGAGCTCC)	0.146
TAACGAGCATGGACCGGTTTTCCCGGTAATCCGTATTTGGG (site TAAGGAGCTCC)	0.143
TAACGAGCATGGACCGGTTTTCCCGGTAATCCGTATTTGGG (site TAATGAGCTCC)	0.0081
